± gives the standard deviation of the averaged measurements.
What was measured:
Assay in all cases: level (log10 ratio to DMSO vehicle control); higher = higher biomarker level / cell amount than vehicle control
Conditions in all cases: in DMSO
[1] = compound: C=CC(=O)OCCC(F)(F)C(F)(F)C(F)(F)C(F)(F)F [2-(Perfluorobutyl)ethyl acrylate]
Procedure: (§1)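 BioMAP Diversity Plus panel of 12 human primary cell co-culture systems (3C, 4H, LPS, SAg, BT, BF4T, BE3C, CASM3C, HDF3CGF, KF3CT, MyoF, Mphg). Compounds were added 1 h before stimulation and left for 24 h (MyoF 48 h; BT 72 h for soluble read-outs or 6 d for IgG). Biomarkers were read by ELISA, cytotoxicity by SRB, PBMC viability and proliferation by Alamar Blue. Each well value was divided by the mean of 8 DMSO control wells on the same plate and log10 transformed; duplicate blinded samples were tested at 4 concentrations.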

[2] = compound: O=C(O)C(F)(F)C(F)(F)C(F)(F)C(F)(F)C(F)(F)C(F)(F)C(F)(F)C(F)(F)C(F)(F)C(F)(F)C(F)(F)C(F)(F)C(F)(F)F [Perfluorotetradecanoic acid]
Procedure: as §1

[3] = compound: O=C(O)C(F)(F)C(F)(F)C(F)(F)C(F)(F)C(F)(F)C(F)(F)C(F)(F)C(F)(F)C(F)(F)C(F)(F)C(F)(F)C(F)(F)F [Perfluorotridecanoic acid]
Procedure: as §1

[4] = compound: O=C(O)C(F)(F)C(F)(F)C(F)(F)C(F)(F)C(F)(F)C(F)(F)C(F)(F)C(F)(F)Cl [9-Chloro-perfluorononanoic acid]
Procedure: as §1

[5] = compound: O=C(O)C(F)(F)C(F)(F)C(F)(F)C(F)(F)C(F)(F)F [Perfluorohexanoic acid]
Procedure: as §1

[6] = compound: OCC(F)(F)C(F)(F)C(F)(F)C(F)(F)C(F)(F)C(F)F [1H,1H,7H-Dodecafluoro-1-heptanol]
Procedure: as §1

[7] = compound: OCC(F)(F)C(F)(F)C(F)(F)F [1H,1H-Heptafluorobutanol]
Procedure: as §1

Test System	level (log10) ([1]; 6700 nM)	level (log10) ([1]; 20000 nM)	level (log10) ([1]; 60000 nM)	level (log10) ([2]; 6700 nM)	level (log10) ([2]; 20000 nM)	level (log10) ([3]; 1500 nM)	level (log10) ([3]; 4400 nM)	level (log10) ([3]; 13000 nM)	level (log10) ([3]; 40000 nM)	level (log10) ([4]; 6700 nM)	level (log10) ([4]; 20000 nM)	level (log10) ([5]; 6700 nM)	level (log10) ([5]; 20000 nM)	level (log10) ([5]; 60000 nM)	level (log10) ([6]; 6700 nM)	level (log10) ([6]; 20000 nM)	level (log10) ([6]; 60000 nM)	level (log10) ([7]; 6700 nM)	level (log10) ([7]; 20000 nM)	level (log10) ([7]; 60000 nM)
3C:CCL2/MCP-1	-0.0105 ± 0.021	-0.0305 ± 0.0035	-0.0245 ± 0.029	0.0125 ± 0.012	0.0085 ± 0.018	0.0135 ± 0.0078	-0.021 ± 0.0014	-0.001 ± 0.0085	0.0035 ± 0.0035	0.015 ± 0.054	-0.0065 ± 0.037	-0.006 ± 0.0028	-0.0145 ± 0.005	0.0115 ± 0.022	0.0225 ± 0.021	0.0145 ± 0.023	0.0325 ± 0.012	-0.001	-0.0055 ± 0.012	0.007 ± 0.028
3C:CD54/ICAM-1	0.0055 ± 0.0021	-0.01 ± 0.0042	-0.01 ± 0.011	-0.0005 ± 0.0078	-0.0045 ± 0.013	0.001 ± 0.016	-0.0125 ± 0.019	-0.0155 ± 0.025	-0.0105 ± 0.0078	-0.0075 ± 0.0092	-0.0085 ± 0.019	0.005 ± 0.013	-0.0045 ± 0.016	-0.0005 ± 0.019	-0.009 ± 0.011	-0.003 ± 0.0099	-0.0055 ± 0.0021	0.0095 ± 0.0064	0.003 ± 0.0085	0.0075 ± 0.0064
3C:CD62E/E-Selectin	-0.016 ± 0.0028	-0.059 ± 0.0014	-0.163 ± 0.05	-0.0245 ± 0.029	-0.0105 ± 0.00071	-0.0015 ± 0.019	-0.0045 ± 0.0064	-0.0005 ± 0.011	-0.01 ± 0.018	-0.005 ± 0.0057	0.001 ± 0.017	-0.0065 ± 0.0092	-0.007 ± 0.011	0.0145 ± 0.029	-0.0135 ± 0.025	-0.007 ± 0.0042	0.0205 ± 0.025	-0.006 ± 0.0028	-0.0025 ± 0.0035	0.015 ± 0.016
3C:CD106/VCAM-1	-0.0335 ± 0.005	-0.0715 ± 0.039	-0.14 ± 0.04	-0.014 ± 0.016	-0.0155 ± 0.0078	0.0125 ± 0.012	-0.0055 ± 0.016	-0.0185 ± 0.019	-0.0165 ± 0.018	-0.005 ± 0.0014	-0.001 ± 0.021	-0.002 ± 0.018	-0.0025 ± 0.029	0.005 ± 0.044	0.001 ± 0.0042	-0.0245 ± 0.032	-0.0195 ± 0.016	0.008 ± 0.033	0.018 ± 0.025	0.001 ± 0.037
3C:CD141/Thrombomodulin	-0.059 ± 0.027	-0.0955 ± 0.025	-0.142 ± 0.027	-0.0165 ± 0.036	-0.024 ± 0.042	-0.0075 ± 0.059	-0.0355 ± 0.079	-0.042 ± 0.065	-0.0505 ± 0.071	-0.017 ± 0.016	-0.008 ± 0.02	-0.0205 ± 0.005	-0.022 ± 0.027	-0.006	-0.007 ± 0.057	0.0065 ± 0.044	-0.017 ± 0.058	-0.0025 ± 0.018	-0.005 ± 0.0042	0.0195 ± 0.005
3C:CD142/Tissue Factor	-0.0105 ± 0.043	-0.127 ± 0.034	-0.381 ± 0.016	0.0275 ± 0.0078	0.0665 ± 0.018	0.034 ± 0.023	0.024 ± 0.042	0.0425 ± 0.025	0.0615 ± 0.00071	-0.008 ± 0.057	0.025 ± 0.0057	0.011 ± 0.0085	-0.0135 ± 0.0092	0.0005 ± 0.012	0.001 ± 0.0057	0.017 ± 0.041	0.001 ± 0.05	-0.0065 ± 0.021	0.0105 ± 0.015	0.026 ± 0.025
BE3C:Keratin 8/18	-0.0135 ± 0.025	0 ± 0.016	0.006 ± 0.013	-0.004 ± 0.03	-0.011 ± 0.045	0.0095 ± 0.0078	0.016 ± 0.0042	-0.0035 ± 0.0021	0.005 ± 0.0014	-0.0025 ± 0.015	0.0095 ± 0.0092	-0.017 ± 0.0057	-0.0125 ± 0.0035	-0.0175 ± 0.021	-0.004 ± 0.0042	0.006 ± 0.014	-0.0135 ± 0.0035	-0.023 ± 0.041	0.0035 ± 0.019	-0.009 ± 0.037
BE3C:MMP-1	0.0175 ± 0.028	-0.007 ± 0.016	0.0705 ± 0.022	0.015 ± 0.025	0.0505 ± 0.059	-0.014 ± 0.035	0.0385 ± 0.05	0.0445 ± 0.043	0.0615 ± 0.028	0.083 ± 0.024	0.277 ± 0.0064	-0.0075 ± 0.0064	0 ± 0.011	0.0275 ± 0.012	0.0045 ± 0.022	0 ± 0.025	0.029 ± 0.0057	0.0035 ± 0.0078	-0.015 ± 0.02	0.0025 ± 0.028
BE3C:MMP-9	-0.004 ± 0.0071	-0.006 ± 0.0014	-0.028 ± 0.0085	-0.033 ± 0.071	-0.04 ± 0.065	-0.0105 ± 0.0035	0.0005 ± 0.023	-0.0065 ± 0.0035	-0.0235 ± 0.00071	0.001 ± 0.014	-0.04 ± 0.014	-0.0155 ± 0.018	-0.005 ± 0.0071	0.0145 ± 0.013	-0.009 ± 0.0028	-0.0105 ± 0.00071	-0.02 ± 0.0028	0.002 ± 0.0042	0.0015 ± 0.0064	0.0175 ± 0.033
BE3C:PAI-I	0.0125 ± 0.033	0.038 ± 0.018	0.076 ± 0.021	0.007 ± 0.058	-0.0175 ± 0.064	0.006 ± 0.017	0.0335 ± 0.0035	-0.004 ± 0.042	-0.0285 ± 0.054	0.0005 ± 0.0035	-0.215 ± 0.017	-0.019 ± 0.018	-0.029 ± 0.011	0.0065 ± 0.022	-0.007 ± 0.0057	-0.009 ± 0.0099	-0.0105 ± 0.0078	-0.0285 ± 0.0078	-0.0185 ± 0.03	-0.0115 ± 0.0035
BE3C:SRB	-0.0035 ± 0.005	-0.0055 ± 0.0021	-0.0015 ± 0.0021	-0.005 ± 0.0057	0.0035 ± 0.012	0.0085 ± 0.019	-0.0035 ± 0.0021	-0.0055 ± 0.0078	0.0035 ± 0.0021	-0.0045 ± 0.0064	-0.0805 ± 0.005	-0.001	-0.006 ± 0.0014	0.009 ± 0.018	0.001 ± 0.0071	-0.009 ± 0.011	0.0025 ± 0.00071	-0.0115 ± 0.0078	-0.0045 ± 0.011	-0.0005 ± 0.0064
BE3C:tPA	-0.036 ± 0.041	-0.056 ± 0.0014	-0.13 ± 0.018	0.04 ± 0.075	0.0035 ± 0.06	0.096 ± 0.011	0.115 ± 0.0021	0.0955 ± 0.032	0.03 ± 0.0071	0.0195 ± 0.023	-0.0985 ± 0.023	-0.032 ± 0.054	-0.0405 ± 0.016	-0.046 ± 0.018	-0.0125 ± 0.0064	-0.0285 ± 0.018	-0.029 ± 0.018	-0.019 ± 0.021	-0.0125 ± 0.061	0.0005 ± 0.005

Source: the supplement of paper PMC10331698
